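Following 48 hours of exposure in 96-well plates, responses at five concentrations were used to interpolate endpoints linearly. The concentration for full growth arrest is given as TGI.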
Experiments:
Assay in all cases: growth of human tumour cells (NCI), 48 h
786-0 renal = tested on: 786-0 renal
A549 NSCLC = tested on: A549 NSCLC
ACHN renal = tested on: ACHN renal
COLO 205 colon = tested on: COLO 205 colon
DU-145 prostate = tested on: DU-145 prostate
EKVX NSCLC = tested on: EKVX NSCLC
HCC-2998 colon = tested on: HCC-2998 colon
HCT-116 colon = tested on: HCT-116 colon
HCT-15 colon = tested on: HCT-15 colon
HOP-62 NSCLC = tested on: HOP-62 NSCLC
HS 578T breast = tested on: HS 578T breast
HT29 colon = tested on: HT29 colon
IGROV1 ovarian = tested on: IGROV1 ovarian
K-562 leukemia = tested on: K-562 leukemia
KM12 colon = tested on: KM12 colon
LOX IMVI melanoma = tested on: LOX IMVI melanoma
M14 melanoma = tested on: M14 melanoma
MALME-3M melanoma = tested on: MALME-3M melanoma
MCF7 breast = tested on: MCF7 breast
MDA-MB-231 breast = tested on: MDA-MB-231 breast
MDA-MB-435 = tested on: MDA-MB-435
MDA-N = tested on: MDA-N
MOLT-4 leukemia = tested on: MOLT-4 leukemia
NCI-H226 lung = tested on: NCI-H226 lung
NCI-H23 lung = tested on: NCI-H23 lung
NCI-H460 lung = tested on: NCI-H460 lung
NCI/ADR-RES ovarian = tested on: NCI/ADR-RES ovarian
OVCAR-3 ovarian = tested on: OVCAR-3 ovarian
OVCAR-4 ovarian = tested on: OVCAR-4 ovarian
OVCAR-5 ovarian = tested on: OVCAR-5 ovarian
PC-3 prostate = tested on: PC-3 prostate
RPMI-8226 leukemia = tested on: RPMI-8226 leukemia
SF-268 CNS = tested on: SF-268 CNS
SF-539 CNS = tested on: SF-539 CNS
SK-MEL-2 melanoma = tested on: SK-MEL-2 melanoma
SK-MEL-28 melanoma = tested on: SK-MEL-28 melanoma
SK-MEL-5 melanoma = tested on: SK-MEL-5 melanoma
SK-OV-3 ovarian = tested on: SK-OV-3 ovarian
SN12C renal = tested on: SN12C renal
SNB-19 CNS = tested on: SNB-19 CNS
SNB-75 CNS = tested on: SNB-75 CNS
SR leukemia = tested on: SR leukemia
SW-620 colon = tested on: SW-620 colon
T-47D breast = tested on: T-47D breast
TK-10 renal = tested on: TK-10 renal
U251 CNS = tested on: U251 CNS
UACC-257 melanoma = tested on: UACC-257 melanoma
UACC-62 melanoma = tested on: UACC-62 melanoma
UO-31 renal = tested on: UO-31 renal
A498 renal = tested on: A498 renal
CAKI-1 renal = tested on: CAKI-1 renal
CCRF-CEM leukemia = tested on: CCRF-CEM leukemia
HL-60(TB) leukemia = tested on: HL-60(TB) leukemia
HOP-92 NSCLC = tested on: HOP-92 NSCLC
NCI-H522 lung = tested on: NCI-H522 lung
OVCAR-8 ovarian = tested on: OVCAR-8 ovarian
RXF 393 renal = tested on: RXF 393 renal
SF-295 CNS = tested on: SF-295 CNS

CC1(C)C(=S)C(C)(C)C1=S
TGI (786-0 renal): > 100 µM
TGI (A549 NSCLC): > 100 µM
TGI (ACHN renal): > 100 µM
TGI (COLO 205 colon): > 100 µM
TGI (DU-145 prostate): > 100 µM
TGI (EKVX NSCLC): > 100 µM
TGI (HCC-2998 colon): > 100 µM
TGI (HCT-116 colon): > 100 µM
TGI (HCT-15 colon): > 100 µM
TGI (HOP-62 NSCLC): > 100 µM
TGI (HS 578T breast): > 100 µM
TGI (HT29 colon): > 100 µM
TGI (IGROV1 ovarian): > 100 µM
TGI (K-562 leukemia): > 100 µM
TGI (KM12 colon): > 100 µM
TGI (LOX IMVI melanoma): > 100 µM
TGI (M14 melanoma): > 100 µM
TGI (MALME-3M melanoma): > 100 µM
TGI (MCF7 breast): > 100 µM
TGI (MDA-MB-231 breast): > 100 µM
TGI (MDA-MB-435): > 100 µM
TGI (MDA-N): > 100 µM
TGI (MOLT-4 leukemia): > 100 µM
TGI (NCI-H226 lung): > 100 µM
TGI (NCI-H23 lung): > 100 µM
TGI (NCI-H460 lung): > 100 µM
TGI (NCI/ADR-RES ovarian): > 100 µM
TGI (OVCAR-3 ovarian): > 100 µM
TGI (OVCAR-4 ovarian): > 100 µM
TGI (OVCAR-5 ovarian): > 100 µM
TGI (PC-3 prostate): > 100 µM
TGI (RPMI-8226 leukemia): > 100 µM
TGI (SF-268 CNS): > 100 µM
TGI (SF-539 CNS): > 100 µM
TGI (SK-MEL-2 melanoma): > 100 µM
TGI (SK-MEL-28 melanoma): > 100 µM
TGI (SK-MEL-5 melanoma): > 100 µM
TGI (SK-OV-3 ovarian): > 100 µM
TGI (SN12C renal): > 100 µM
TGI (SNB-19 CNS): > 100 µM
TGI (SNB-75 CNS): > 100 µM
TGI (SR leukemia): > 100 µM
TGI (SW-620 colon): > 100 µM
TGI (T-47D breast): > 100 µM
TGI (TK-10 renal): > 100 µM
TGI (U251 CNS): > 100 µM
TGI (UACC-257 melanoma): > 100 µM
TGI (UACC-62 melanoma): > 100 µM
TGI (UO-31 renal): > 100 µM

COC(=O)C(Cc1ccccc1I)C1=CCC2(CC1)OCCO2 (stereo not given)
TGI (786-0 renal): > 100 µM
TGI (A498 renal): > 100 µM
TGI (A549 NSCLC): 82.8 µM
TGI (ACHN renal): > 100 µM
TGI (CAKI-1 renal): > 100 µM
TGI (CCRF-CEM leukemia): 81 µM
TGI (COLO 205 colon): 63 µM
TGI (DU-145 prostate): > 100 µM
TGI (EKVX NSCLC): > 100 µM
TGI (HCC-2998 colon): > 100 µM
TGI (HCT-15 colon): > 100 µM
TGI (HL-60(TB) leukemia): 41.5 µM
TGI (HOP-62 NSCLC): > 100 µM
TGI (HOP-92 NSCLC): 97.2 µM
TGI (HS 578T breast): 77.5 µM
TGI (HT29 colon): > 100 µM
TGI (IGROV1 ovarian): > 100 µM
TGI (K-562 leukemia): > 100 µM
TGI (KM12 colon): 76.2 µM
TGI (LOX IMVI melanoma): 58.7 µM
TGI (M14 melanoma): 50.4 µM
TGI (MALME-3M melanoma): 56.5 µM
TGI (MCF7 breast): 92.7 µM
TGI (MDA-MB-231 breast): > 100 µM
TGI (MDA-MB-435): 44.8 µM
TGI (MDA-N): 67.4 µM
TGI (MOLT-4 leukemia): 56.8 µM
TGI (NCI-H226 lung): > 100 µM
TGI (NCI-H23 lung): 95.1 µM
TGI (NCI-H460 lung): > 100 µM
TGI (NCI-H522 lung): 53.7 µM
TGI (NCI/ADR-RES ovarian): 55.8 µM
TGI (OVCAR-3 ovarian): 81.3 µM
TGI (OVCAR-4 ovarian): > 100 µM
TGI (OVCAR-5 ovarian): 54.5 µM
TGI (OVCAR-8 ovarian): > 100 µM
TGI (PC-3 prostate): 93.8 µM
TGI (RPMI-8226 leukemia): > 100 µM
TGI (RXF 393 renal): 42.5 µM
TGI (SF-268 CNS): > 100 µM
TGI (SF-295 CNS): > 100 µM
TGI (SF-539 CNS): > 100 µM
TGI (SK-MEL-2 melanoma): 75.4 µM
TGI (SK-MEL-28 melanoma): > 100 µM
TGI (SK-MEL-5 melanoma): 34.1 µM
TGI (SK-OV-3 ovarian): > 100 µM
TGI (SNB-19 CNS): 96.8 µM
TGI (SNB-75 CNS): 57.4 µM
TGI (SR leukemia): 52 µM
TGI (SW-620 colon): > 100 µM
TGI (T-47D breast): 39.7 µM
TGI (TK-10 renal): > 100 µM
TGI (U251 CNS): > 100 µM
TGI (UACC-257 melanoma): 97.1 µM
TGI (UACC-62 melanoma): 59.3 µM
TGI (UO-31 renal): 66.3 µM
